Residues, ends and D or L forms follow the SMILES beside them. *: point of attachment. AMC = Cc1cc(=O)oc2cc(N*)ccc12; Cbz = O=C(OCc1ccccc1)*
Target: recombinant HvPAP14 (HvPAP14:MBP) (Hordeum vulgare, UniProt B4ESF2)
Assay: fluorogenic cleavage, ratio of […] nm / […] nm emission
Type: biochemical
Settings: 20 uM substrate, pH 3.5-9; enzyme activated at pH 4.5

Chain of recombinant HvPAP14 (HvPAP14:MBP) (B4ESF2 30-367): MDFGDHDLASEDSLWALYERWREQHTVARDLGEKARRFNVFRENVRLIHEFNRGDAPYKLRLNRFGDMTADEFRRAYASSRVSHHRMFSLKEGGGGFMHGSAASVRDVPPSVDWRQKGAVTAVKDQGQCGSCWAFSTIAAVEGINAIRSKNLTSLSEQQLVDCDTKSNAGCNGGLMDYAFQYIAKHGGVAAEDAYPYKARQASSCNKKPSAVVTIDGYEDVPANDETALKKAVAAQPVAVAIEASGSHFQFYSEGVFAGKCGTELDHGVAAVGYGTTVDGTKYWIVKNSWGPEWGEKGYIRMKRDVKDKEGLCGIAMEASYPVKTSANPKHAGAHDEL

For `Cc1cc(=O)oc2cc(NC(=O)[C@H](CCCNC(=N)N)NC(=O)[C@H](Cc3ccccc3)NC(=O)OCc3ccccc3)ccc12` [Z-FR-AMC] (Cbz-Phe-Arg-{AMC}), the “fluorogenic cleavage, ratio of 440 nm / 393 nm emission” value was “activity of the recombinant protein was therefore tested at different pH values using the fluorescent”.
